Experimental data: EP4603105A1, “PHARMACEUTICAL COMPOSITION CONTAINING CYCLIC COMPOUND HAVING SELECTIVE KRAS INHIBITORY EFFECT AGAINST HRAS AND NRAS” (CHUGAI SEIYAKU KABUSHIKI KAISHA, priority 2022, dated 2024)
Where two headings read alike, the source gives them in different places.

Tests used:
[1] = target: HRAS wild-type protein (Homo sapiens, UniProt P01112); test: Binding to HRAS by surface plasmon resonance (SPR), KD and KD ratio to KRAS
Method in brief: (§1)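 Running buffer contained 10 µM GDP and 10 mM MgCl2 to keep RAS in the GDP state, with 4% DMSO at pH 7.4. Compounds were flowed at 100 µL/min in 75 s steps of rising concentration over captured biotin-Avi RAS at 30°C. Sensorgrams were fitted 1:1 for KD.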

[2] = target: GDP-bound KRAS wild-type protein (Homo sapiens, UniProt P01116); test: Binding to KRAS by surface plasmon resonance (SPR), dissociation constant KD
Method in brief: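 Compound binding is evaluated by SPR single-cycle kinetics, with concentrations added intermittently from low to high for 75 s each. Target surfaces carry GDP-loaded biotinylated Avi-RAS at about 100–300 RU, regenerated after each cycle; temperature 30°C. A 1:1 binding model gives KD.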

[3] = test system: human lung cancer strain NCI-H441; test: NCI-H441 cell proliferation inhibitory activity (CellTiter-Glo, 4 days); assay type: cell-based; details: read-out: NCl-H441 IC50
Method in brief: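 Step one: dispense the test compound in serial DMSO dilutions. Step three: add the reagent and measure […].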

[4] = target: GDP-bound NRAS wild-type protein (Homo sapiens, UniProt P01111); test: Binding to NRAS by surface plasmon resonance (SPR), KD and KD ratio to KRAS
Method in brief: as §1

[5] = ratio of KD for HRAS wild-type protein to KD for KRAS
[6] = ratio of KD for GDP-bound NRAS wild-type protein to KD for KRAS
[7] = ratio of KD with respect to HRAS wild-type protein to KD with respect to KRAS
[8] = Single Cycle Kinetics, 1:1 binding model
[9] = 50% proliferation inhibitory concentration, four days
[10] = ratio of KD with respect to GDP-bound NRAS wild-type protein to KD with respect to KRAS

Sequence of GDP-bound NRAS wild-type protein (P01111 whole entry): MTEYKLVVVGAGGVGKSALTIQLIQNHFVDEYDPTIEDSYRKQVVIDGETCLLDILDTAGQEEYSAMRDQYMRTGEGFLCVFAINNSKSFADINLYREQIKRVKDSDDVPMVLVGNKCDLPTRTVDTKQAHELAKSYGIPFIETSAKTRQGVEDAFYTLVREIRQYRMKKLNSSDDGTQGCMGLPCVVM
Sequence of HRAS wild-type protein (P01112 whole entry): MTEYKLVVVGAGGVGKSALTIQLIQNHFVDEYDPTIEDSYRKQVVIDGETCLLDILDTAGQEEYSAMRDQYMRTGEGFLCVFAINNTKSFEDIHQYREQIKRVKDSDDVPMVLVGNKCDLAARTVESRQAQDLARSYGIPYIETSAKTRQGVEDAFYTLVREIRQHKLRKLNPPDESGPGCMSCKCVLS
Sequence of GDP-bound KRAS wild-type protein (P01116 1-188 isoform P01116-2): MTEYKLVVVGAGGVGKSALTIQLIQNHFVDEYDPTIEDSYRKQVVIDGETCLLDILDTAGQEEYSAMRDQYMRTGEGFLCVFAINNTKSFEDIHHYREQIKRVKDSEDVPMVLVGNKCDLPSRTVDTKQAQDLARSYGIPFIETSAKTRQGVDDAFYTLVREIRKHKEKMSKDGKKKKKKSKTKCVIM

Compound | HRAS /KRAS [1, 5] | Kd ([2]; Single Cycle Kinetics) [nM] | IC50 ([3]; NCI-H441 cells, 4 days) [nM] | NRAS /KRAS [4, 6] | Kd ([2]; 1:1 binding model) [nM] | HRAS /KRAS [1, 7] | Kd [2, 8] [nM] | IC50 [3, 9] [nM] | NRAS /KRAS [4, 10]
CCCO[C@@H]1C[C@H]2C(=O)NC3(CC(C)(C)C3)C(=O)N(C)[C@@H](C3CCCC3)C(=O)N(C)[C@H](C(=O)N(C)CC)CC(=O)N(C)[C@@H](COCC)C(=O)N[C@@H]([C@@H](C)CC)C(=O)N(C3CC3)CC(=O)N(C)[C@H]3C/C=C\CCN(C3=O)[C@@H](Cc3ccc(C)cc3)C(=O)N(C)CC(=O)N[C@@H](CCc3ccc(C(F)(F)F)c(Cl)c3)C(=O)N2C1 [PP3462] | A (a compound having 10 or more and less than 20 is denoted as A) | 0.68 | 39.7 | AA (a compound having 20 or more is denoted as AA) | – | – | – | – | –
CCCOC[C@H]1C(=O)N[C@@H]([C@@H](C)CC)C(=O)N2CCC[C@H]2C(=O)N(C)[C@H]2C/C=C\CCN(C2=O)[C@@H](Cc2ccc(C)cc2)C(=O)N(C)CC(=O)N[C@@H](CCc2cc(F)c(C(F)(F)F)c(F)c2)C(=O)N2C[C@H](C)C[C@H]2C(=O)NC2(CC(C)(C)C2)C(=O)N(C)[C@@H](C2CCCC2)C(=O)N(C)[C@H](C(=O)N(C)CC)CC(=O)N1C [PP2430] | A (a compound having 10 or more and less than 20 is denoted as A) | – | 33.2 | AA (a compound having 20 or more is denoted as AA) | 1.4 | – | – | – | –
CCC[C@H]1C(=O)N[C@@H]([C@@H](C)CC)C(=O)N(C)CC(=O)N(C)[C@H]2C/C=C\CCN(C2=O)[C@@H](Cc2ccc(C)cc2)C(=O)N(C)CC(=O)N[C@@H](CCc2ccc(C(F)(F)F)c(OC)c2)C(=O)N2CC3(CC3)C[C@H]2C(=O)NC2(CCC2)C(=O)N(C)[C@@H](C(CC)CC)C(=O)N(C)[C@H](C(=O)N(C)C)CC(=O)N1C [PP3422] | A (a compound having 10 or more and less than 20 is denoted as A) | 0.39 | 8.4 | AA (a compound having 20 or more is denoted as AA) | – | – | – | – | –
CCO[C@@H]1C[C@H]2C(=O)NC3(CCC3)C(=O)N(C)[C@@H](C3CCCC3)C(=O)N(C)[C@H](C(=O)N(C)C)CC(=O)N(C)[C@@H](CC)C(=O)N[C@@H]([C@@H](C)CC)C(=O)N(C)CC(=O)N(C)[C@H]3C/C=C\CCN(C3=O)[C@@H](Cc3ccc(C(F)(F)F)cc3)C(=O)N(C)CC(=O)N[C@@H](CCc3ccc(C(F)(F)F)c(C)c3)C(=O)N2C1 [PP1265] | – | – | – | – | – | B (a compound having 3 or more and less than 10 is denoted as B) | 0.17 | 14.1 | A (a compound having 10 or more and less than 20 is denoted as A)
CCO[C@@H]1C[C@H]2C(=O)NC3(CCC3)C(=O)N(C)[C@@H](C3CCCC3)C(=O)N(C)[C@H](C(=O)N3CCC3)CC(=O)N(C)[C@@H](CC)C(=O)N[C@@H]([C@@H](C)CC)C(=O)N(C)CC(=O)N(C)[C@H]3C/C=C\CCN(C3=O)[C@@H](CC3CCC(F)(F)CC3)C(=O)N(C)CC(=O)N[C@@H](CCc3cc(F)c(C(F)(F)F)c(F)c3)C(=O)N2C1 [PP1444] | – | – | – | – | – | A (a compound having 10 or more and less than 20 is denoted as A) | 0.19 | 103 | A (a compound having 10 or more and less than 20 is denoted as A)
CCO[C@@H]1C[C@H]2C(=O)NC3(CC(C)(C)C3)C(=O)N(C)[C@@H](C3CCCC3)C(=O)N(C)[C@H](C(=O)N(C)C)CC(=O)N(C)[C@@H]([C@H](C)OC)C(=O)N[C@@H]([C@@H](C)CC)C(=O)N(C3CC3)CC(=O)N(C)[C@H]3C/C=C\CCN(C3=O)[C@@H](Cc3ccc(C(F)(F)F)cc3)C(=O)N(C)CC(=O)N[C@@H](CCc3cc(F)c(C(F)(F)F)c(F)c3)C(=O)N2C1 [PP3175] | A (a compound having 10 or more and less than 20 is denoted as A) | 0.31 | 15.3 | A (a compound having 10 or more and less than 20 is denoted as A) | – | – | – | – | –
CCC[C@H]1C(=O)N[C@@H](C2CCCC2)C(=O)N(C)CC(=O)N(C)[C@H]2C/C=C\CCN(C2=O)[C@@H](Cc2ccc(C)cc2)C(=O)N(C)CC(=O)N[C@@H](CCc2ccc(C(F)(F)F)c(OC)c2)C(=O)N2CC3(CC3)C[C@H]2C(=O)NC2(CCC2)C(=O)N(C)[C@@H](C(CC)CC)C(=O)N(C)[C@H](C(=O)N(C)C)CC(=O)N1C [PP3430] | A (a compound having 10 or more and less than 20 is denoted as A) | 0.7 | 29.8 | AA (a compound having 20 or more is denoted as AA) | – | – | – | – | –
CCCO[C@@H]1C[C@H]2C(=O)NC3(CC(C)(C)C3)C(=O)N(C)[C@@H](C3CCCC3)C(=O)N(C)[C@H](C(=O)N(C)CC)CC(=O)N(C)[C@@H](COCC)C(=O)N[C@@H]([C@@H](C)CC)C(=O)N(C3CC3)CC(=O)N(C)[C@H]3C/C=C\CCN(C3=O)[C@@H](Cc3ccc(C(F)(F)F)cc3)C(=O)N(C)CC(=O)N[C@@H](CCc3ccc(C(F)(F)F)c(OC)c3)C(=O)N2C1 [PP3411] | A (a compound having 10 or more and less than 20 is denoted as A) | 0.72 | 25.8 | A (a compound having 10 or more and less than 20 is denoted as A) | – | – | – | – | –
